# Tests used:
# [1] = test system: U-2932; experiment: Combination study, ATPLite 72 h, dose matrix (Synergy Score, CI50); settings: combination with Compound 1, 72 h
# [2] = test system: Mino; experiment: as above; settings: combination with Compound 1
# [3] = test system: HH; experiment: as above; format: cell-based; settings: combination with Compound 1
# Method: The method is described as follows.
# Additive effect is CI=1.0. […] Antagonistic effect is CI>1.0.
# The Synergy Score is calculated as: […]
# [4] = test system: OCI-Ly7; experiment: as above; settings: combination with Compound 1, 72 h
# [5] = test system: OCI-Ly3; experiment: as above; settings: combination with Compound 1; OCI-Ly3; 72 h
# [6] = test system: KARPAS-299; experiment: as above; settings: combination with Compound 1
# [7] = test system: TMD8; experiment: as above; settings: combination with Compound 1; TMD8; 72 h
# Method: (§1) Cells are thawed from a liquid nitrogen preserved state. Once cells have been expanded and divide at their expected doubling times, screening begins. Cells are seeded in growth media in either black 1536-well or 384-well tissue culture treated plates. Cells are then equilibrated in assay plates via centrifugation and placed in incubators attached to the Dosing Modules at 37° C. for 24 hours before treatment. […] These Tzero (To) plates are read using ultra-sensitive luminescence on Envision plate readers (Perkin Elmer). Treated assay plates are incubated with compound for 72 hours. After 72 hours, plates are developed for endpoint analysis using ATPLite. All data points are collected via automated processes, quality controlled and analyzed using Zalicus software.
# (§2) where T is treated cell count and V is untreated (vehicle) cell count (at 72 hours). I ranges from 0% (when T=V) to 100% (when T=0). […] The measure of effect in the experiment can be the inhibition of cellular response relative to the untreated level (vehicle alone). […] The inhibition ranges from 0% at the untreated level to 100% when T=0. Inhibition levels are negative for agents that actually increase levels. Other effect measures, such as an activity ratio r=T/V may be more appropriate for some assays. When activity ratios (e.g, fold increase over stimulated control) are being used, the effect can be measured using an induction 1=ln(T/V). With this definition, all effect expressions are the same as for inhibition.
# (§3) Growth Inhibition (GI) is used as a measure of cell viability. […] A GI reading of 100% represents complete growth inhibition—T72 compound-treated and T0 vehicle signals are matched. […] A GI reading of 200% represents complete death of all cells in the culture well. Compounds reaching an activity plateau of GI 200% are considered cytotoxic. GI is calculated by applying the following test and equation:
# (§4) Combination analysis data were collected in a 6×6 dose matrix. Synergy is calculated by comparing a combination's response to those of its single compound, against the drug-with-itself dose-additive reference model. Deviations from dose additivity may be assessed visually on an isobologram or numerically with a Combination Index (CI). […] Additive effect is CI=1.0. […] Antagonistic effect is CI>1.0.
# (§5) The isobologram was drawn by identifying the locus of concentrations that correspond to crossing the indicated inhibition level. This is done by finding the crossing point for each single agent concentration in a dose matrix across the concentrations of the other single agent. Practically, each vertical concentration CY is held fixed while a bisection algorithm is used to identify the horizontal concentration CX in combination with that vertical dose that gives the chosen effect level in the response surface Z(CX,CY). These concentrations are then connected by linear interpolation to generate the isobologram display. For synergistic interactions, the isobologram contour fall below the additivity threshold and approaches the origin, and an antagonistic interaction would lie above the additivity threshold. The error bars represent the uncertainty arising from the individual data points used to generate the isobologram. The uncertainty for each crossing point is estimated from the response errors using bisection to find the concentrations where Z−αZ(CX,CY) and Z+σZ(CX,CY) cross Icut, where αZ is the standard deviation of the residual error on the effect scale.
# (§6) To measure combination effects in excess of Loewe additivity, a scalar measure to characterize the strength of synergistic interaction termed the Synergy Score is devised. The Synergy Score is calculated as:
# (§7) The fractional inhibition for each component agent and combination point in the matrix is calculated relative to the median of all vehicle-treated control wells.
# [8] = test system: DOHH-2; experiment: as above; settings: combination with Compound 1, 72 h
# [9] = test system: HBL-1; experiment: as above; settings: combination with Compound 1, 72 h
# Method: as §1, §2, §3, §4, §6
# (§8) The fractional inhibition for each component agent and combination point in the matrix is calculated relative to the median of all vehicle-treated control wells. The Synergy Score equation integrates the experimentally-observed activity volume at each point in the matrix in excess of a model surface numerically derived from the activity of the component agents using the Loewe model for additivity. Additional terms in the Synergy Score equation (above) are used to normalize for various dilution factors used for individual agents and to allow for comparison of synergy scores across an entire experiment. The inclusion of positive inhibition gating or an Idata multiplier removes noise near the zero effect level, and biases results for synergistic interactions at that occur at high activity levels.
# Loewe Volume (Loewe Vol) is used to assess the overall magnitude of the combination interaction in excess of the Loewe additivity model. Loewe Volume is particularly useful when distinguishing synergistic increases in a phenotypic activity (positive Loewe Volume) versus synergistic antagonisms (negative Loewe Volume). […] This model defines additivity as a non-synergistic combination interaction where the combination dose matrix surface should be indistinguishable from either drug crossed with itself. The calculation for Loewe additivity is:
# [10] = test system: Farage; experiment: as above; settings: combination with Compound 1; Farage; 72 h
# Method: as §1, §2, §3, §4, §5, §6, §7
# [11] = as above; settings: combination with Compound 1; OPM-2
# Method: as §1, §2, §3, §4, §6, §8
# (§9) Loewe Volume (Loewe Vol) is used to assess the overall magnitude of the combination interaction in excess of the Loewe additivity model. Loewe Volume is particularly useful when distinguishing synergistic increases in a phenotypic activity (positive Loewe Volume) versus synergistic antagonisms (negative Loewe Volume). […] This model defines additivity as a non-synergistic combination interaction where the combination dose matrix surface should be indistinguishable from either drug crossed with itself.
# [12] = test system: OMP-2; experiment: as above; settings: combination with Compound 1; OPM-2
# Method: as §1, §2, §3, §4, §6, §8, §9
# [13] = test system: NCI-H929; experiment: as above; settings: combination with Compound 1
# [14] = test system: SU-DHL-4-epst; experiment: as above; settings: combination with Compound 1, 72 h
# [15] = test system: Jeko-1; experiment: as above; settings: combination with Compound 1
# [16] = test system: GRANTA-519; experiment: as above; settings: combination with Compound 1
# [17] = test system: RL; experiment: as above; settings: combination with Compound 1, 72 h
# [18] = test system: WSU-NHL; experiment: as above; settings: combination with Compound 1, 72 h
# [19] = test system: KARPAS-422; experiment: as above; settings: combination with Compound 1, 72 h
# [20] = test system: RPMI-8226; experiment: as above; settings: combination with Compound 1
# [21] = test system: SU-DHL-10-epst; experiment: as above; settings: combination with Compound 1, 72 h
smiles,measurement,setting,value
"CCCCCCCCCCCCCCCCCCOP(=O)([O-])OC1CC[N+](C)(C)CC1 [perifosine, 1,1-dimethylpiperidinium-4-yl octadecyl phosphate]",CI50 growth inhibition,[1],W (W=≥1)
same,CI50 inhibition,[1],W (W=≥1)
same,Synergy Score growth inhibition,[1],A1 (A1=0.0001 to <1)
same,Synergy Score inhibition,[1],A1 (A1=0.0001 to <1)
same,CI50 growth inhibition,[2],U (U=0.7 to <1)
same,CI50 inhibition,[2],W (W=≥1)
same,Synergy Score growth inhibition,[2],A2 (A2=1 to <3)
same,Synergy Score inhibition,[2],A1 (A1=0.0001 to <1)
same,CI50 growth inhibition,[3],W (W=≥1)
same,CI50 inhibition,[3],S (S=0.01 to <0.5)
same,Synergy Score growth inhibition,[3],A3 (A3=>3)
same,Synergy Score inhibition,[3],A2 (A2=1 to <3)
same,CI50 growth inhibition,[4],U (U=0.7 to <1)
same,CI50 inhibition,[4],W (W=≥1)
same,Synergy Score growth inhibition,[4],A2 (A2=1 to <3)
same,Synergy Score inhibition,[4],A1 (A1=0.0001 to <1)
same,CI50 growth inhibition,[5],W (W=≥1)
same,CI50 inhibition,[5],W (W=≥1)
same,Synergy Score growth inhibition,[5],A1 (A1=0.0001 to <1)
same,Synergy Score inhibition,[5],A1 (A1=0.0001 to <1)
same,CI50 growth inhibition,[6],W (W=≥1)
same,CI50 inhibition,[6],W (W=≥1)
same,Synergy Score growth inhibition,[6],A1 (A1=0.0001 to <1)
same,Synergy Score inhibition,[6],A1 (A1=0.0001 to <1)
same,CI50 growth inhibition,[7],T (T=0.5 to <0.7)
same,CI50 inhibition,[7],T (T=0.5 to <0.7)
same,Synergy Score growth inhibition,[7],A2 (A2=1 to <3)
same,Synergy Score inhibition,[7],A2 (A2=1 to <3)
same,CI50 growth inhibition,[8],T (T=0.5 to <0.7)
same,CI50 inhibition,[8],U (U=0.7 to <1)
same,Synergy Score growth inhibition,[8],A3 (A3=>3)
same,Synergy Score inhibition,[8],A2 (A2=1 to <3)
same,CI50 growth inhibition,[9],U (U=0.7 to <1)
same,CI50 inhibition,[9],W (W=≥1)
same,Synergy Score growth inhibition,[9],A3 (A3=>3)
same,Synergy Score inhibition,[9],A1 (A1=0.0001 to <1)
same,CI50 growth inhibition,[10],S (S=0.01 to <0.5)
same,CI50 inhibition,[10],T (T=0.5 to <0.7)
same,Synergy Score growth inhibition,[10],A3 (A3=>3)
same,Synergy Score inhibition,[10],A2 (A2=1 to <3)
same,CI50 growth inhibition,[11],U (U=0.7 to <1)
same,CI50 inhibition,[12],W (W=≥1)
same,Synergy Score growth inhibition,[12],A2 (A2=1 to <3)
same,Synergy Score inhibition,[12],A1 (A1=0.0001 to <1)
same,CI50 growth inhibition,[13],U (U=0.7 to <1)
same,CI50 inhibition,[13],W (W=≥1)
same,Synergy Score growth inhibition,[13],A2 (A2=1 to <3)
same,Synergy Score inhibition,[13],A1 (A1=0.0001 to <1)
same,CI50 growth inhibition,[14],S (S=0.01 to <0.5)
same,CI50 inhibition,[14],U (U=0.7 to <1)
same,Synergy Score growth inhibition,[14],A2 (A2=1 to <3)
same,Synergy Score inhibition,[14],A1 (A1=0.0001 to <1)
same,CI50 growth inhibition,[15],U (U=0.7 to <1)
same,CI50 inhibition,[15],W (W=≥1)
same,Synergy Score growth inhibition,[15],A1 (A1=0.0001 to <1)
same,Synergy Score inhibition,[15],A1 (A1=0.0001 to <1)
same,CI50 growth inhibition,[16],S (S=0.01 to <0.5)
same,CI50 inhibition,[16],W (W=≥1)
same,Synergy Score growth inhibition,[16],A2 (A2=1 to <3)
same,Synergy Score inhibition,[16],A1 (A1=0.0001 to <1)
same,CI50 growth inhibition,[17],W (W=≥1)
same,CI50 inhibition,[17],W (W=≥1)
same,Synergy Score growth inhibition,[17],A1 (A1=0.0001 to <1)
same,Synergy Score inhibition,[17],A1 (A1=0.0001 to <1)
same,CI50 growth inhibition,[18],U (U=0.7 to <1)
same,CI50 inhibition,[18],T (T=0.5 to <0.7)
same,Synergy Score growth inhibition,[18],A3 (A3=>3)
same,Synergy Score inhibition,[18],A2 (A2=1 to <3)
same,CI50 growth inhibition,[19],W (W=≥1)
same,CI50 inhibition,[19],U (U=0.7 to <1)
same,Synergy Score growth inhibition,[19],A1 (A1=0.0001 to <1)
same,Synergy Score inhibition,[19],A1 (A1=0.0001 to <1)
same,CI50 growth inhibition,[20],T (T=0.5 to <0.7)
same,CI50 inhibition,[20],U (U=0.7 to <1)
same,Synergy Score growth inhibition,[20],A3 (A3=>3)
same,Synergy Score inhibition,[20],A1 (A1=0.0001 to <1)
same,CI50 growth inhibition,[21],T (T=0.5 to <0.7)
same,CI50 inhibition,[21],U (U=0.7 to <1)
same,Synergy Score growth inhibition,[21],A2 (A2=1 to <3)
same,Synergy Score inhibition,[21],A2 (A2=1 to <3)

# — patent US20240325398A1, “COMBINATION THERAPIES” (Infinity Pharmaceuticals, Inc., priority 2014, published 2024)
